The source of these data is paper PMC11528023, “Transport mechanism and structural pharmacology of human urate transporter URAT1” (Cell Research, 2024).

Assay [1] concerns the target T1, URAT1 Q473E (Homo sapiens, UniProt Q96S37, Q473E).
T1 construct: expressed in transfected cells; host or cells: HEK293 cells (ATCC, CRL-3216), transient transfection
T1 sequence (Q96S37 1-553 Q473E): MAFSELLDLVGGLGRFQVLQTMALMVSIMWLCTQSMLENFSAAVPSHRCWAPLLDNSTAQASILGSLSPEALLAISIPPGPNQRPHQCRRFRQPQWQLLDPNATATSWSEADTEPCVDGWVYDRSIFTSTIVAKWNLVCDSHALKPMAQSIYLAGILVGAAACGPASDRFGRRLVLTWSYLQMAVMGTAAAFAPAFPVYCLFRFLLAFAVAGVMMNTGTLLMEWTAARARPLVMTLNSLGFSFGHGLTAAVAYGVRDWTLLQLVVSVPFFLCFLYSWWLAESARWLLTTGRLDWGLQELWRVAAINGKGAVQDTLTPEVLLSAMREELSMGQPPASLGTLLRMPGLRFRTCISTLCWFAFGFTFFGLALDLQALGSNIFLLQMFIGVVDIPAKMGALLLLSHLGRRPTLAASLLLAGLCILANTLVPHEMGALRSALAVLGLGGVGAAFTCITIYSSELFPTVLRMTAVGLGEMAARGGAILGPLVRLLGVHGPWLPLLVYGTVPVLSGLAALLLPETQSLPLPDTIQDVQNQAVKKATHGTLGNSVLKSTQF
Briefly: Anion preloading 14C-urate uptake assay, URAT1 Q473E. The class given is cell-based. The following applies: Fig. 4e, f; Site 1 mutant.

Assay [2] has as its target T2, URAT1WT (Homo sapiens, UniProt Q96S37).
T2 construct: expressed in transfected cells; host or cells: HEK293 cells (ATCC, CRL-3216), transient transfection with Lipofectamine 3000
T2 sequence (Q96S37 1-553): T1 sequence (Q96S37 1-553 Q473E) with E473Q
The assay can be described thus: Anion preloading 14C-urate uptake assay, WT URAT1. In kind it is cell-based. The following applies: Fig. 4e, f, NaCl uptake buffer.

In assay [3] the target is T3, URAT1EM (Homo sapiens, UniProt Q96S37, A280P/A304R/A323S/A335R/D313K/DEL311-312/DEL60-62/G295A/G309E/G331A/G338L/G65T/I63V/INS307H/L287I/L292P/L321M/L328V/L337V/L341F/L64S/M324V/M330S/M343V/P317I/P333E/Q332K/R291K/R301K/R325K/R342C/S329A/T288I/T289K/T314N/T339D/W294Q/W300R).
T3 construct: human URAT1 (residues 3–553), a (GGGGS)3 linker, and C-terminal DARPinoff7; expressed in transfected cells; host or cells: HEK293 cells (ATCC, CRL-3216), transient transfection
T3 sequence (Q96S37 with tags, fused parts or gaps DEL60-62/I63V/L64S/G65T/A280P/L287I/T288I/T289K/R291K/L292P/W294Q/G295A/W300R/R301K/A304R/INS307H/G309E/DEL311-312/D313K/T314N/P317I/L321M/A323S/M324V/R325K/L328V/S329A/M330S/G331A/Q332K/P333E/A335R/L337V/G338L/T339D/L341F/R342C/M343V): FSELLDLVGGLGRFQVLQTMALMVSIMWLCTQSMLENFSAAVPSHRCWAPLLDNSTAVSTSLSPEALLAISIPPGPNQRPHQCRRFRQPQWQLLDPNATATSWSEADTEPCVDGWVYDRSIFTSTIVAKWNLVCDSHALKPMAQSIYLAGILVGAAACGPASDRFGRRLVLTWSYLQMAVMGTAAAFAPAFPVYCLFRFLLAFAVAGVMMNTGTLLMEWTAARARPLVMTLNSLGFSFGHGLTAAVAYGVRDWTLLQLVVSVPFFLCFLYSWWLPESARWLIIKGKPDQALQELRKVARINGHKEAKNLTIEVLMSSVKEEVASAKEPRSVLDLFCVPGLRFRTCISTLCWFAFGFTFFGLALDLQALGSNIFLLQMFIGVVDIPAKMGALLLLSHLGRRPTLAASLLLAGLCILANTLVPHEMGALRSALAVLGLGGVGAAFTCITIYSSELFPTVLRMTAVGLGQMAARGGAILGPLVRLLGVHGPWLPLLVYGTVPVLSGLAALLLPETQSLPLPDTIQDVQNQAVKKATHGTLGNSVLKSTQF
Briefly: 14C-urate uptake in HEK293 cells expressing URAT1EM (cryo-EM construct). The class given is cell-based. As to conditions: read-out: IC50 for URAT1EM. On the procedure: (§1) Data are shown as mean ± SD; n = 3 biological replicates. In a, b, uptake buffer: 20 mM HEPES pH 7.4, 125 mM sodium gluconate, 4.8 mM potassium gluconate, 1.2 mM monobasic potassium phosphate, 1.2 mM magnesium sulfate, 1.3 mM calcium gluconate, and 5.6 mM glucose. c Cryo-EM density maps of URAT1 in the apo and substrate-bound states. […] Putative lipid densities are in light cyan. d Cryo-EM density maps of URAT1 in the drug-bound states. […] Putative lipid densities are in light cyan. e Diagram of URAT1 topology. ECD, extracellular domain. f Structure of URAT1 in the apo state. g Slice view of URAT1 in the apo state, showing the central cavity and opening to the intracellular side.
(§2) Human embryonic kidney (HEK) 293 cells (ATCC, CRL-3216) were seeded onto poly(D-lysine)-coated 96-well plates at a density of 0.3 × 10^5 cells per well and cultured at 37 °C until reaching approximately 70%–80% confluence. The cells were transiently transfected with plasmids encoding the URAT1 WT or mutants using Lipofectamine 3000 (Invitrogen, L3000001), following the manufacturer’s protocol. The transfected cells were cultured at 37 °C for 12 h. Following this, 10 mM sodium butyrate was added, and the cells were further incubated at 30 °C for an additional 24 h. […]

The target in assay [4] is T2, URAT1WT. The assay can be described thus: 14C-urate uptake inhibition in HEK293 cells expressing WT URAT1. The class given is cell-based. On the procedure: as §1, §2
For assay [5], the target named is human URAT1 tagged with MBP and DARPin, with part of the intracellular loop (residues 280-343) replaced by OAT4 residues 277-339 (human) (UniProt Q96S37). Briefly: cryo-EM particle images; purified protein at the high concentration used to prepare cryo-EM grids; particles seen on the grids (Supplementary Fig. S1b).
The target of assay [6] is T4, URAT1 (Homo sapiens, UniProt Q96S37).
T4 construct: expressed in transfected cells; host or cells: HEK293 cells (ATCC, CRL-3216), transient transfection with Lipofectamine 3000
T4 sequence (Q96S37 1-553): T1 sequence (Q96S37 1-553 Q473E) with E473Q
The assay can be described thus: Effect of reducing anion gradients on 14C-urate uptake. In kind it is cell-based. As to conditions: 125 mM sodium phosphate in place of sodium gluconate in uptake buffer, Fig. S12b. On the procedure:
Human embryonic kidney (HEK) 293 cells (ATCC, CRL-3216) were seeded onto poly(D-lysine)-coated 96-well plates at a density of 0.3 × 10^5 cells per well and cultured at 37 °C until reaching approximately 70%–80% confluence. The cells were transiently transfected with plasmids encoding the URAT1 WT or mutants using Lipofectamine 3000 (Invitrogen, L3000001), following the manufacturer’s protocol. The transfected cells were cultured at 37 °C for 12 h. Following this, 10 mM sodium butyrate was added, and the cells were further incubated at 30 °C for an additional 24 h. The medium was aspirated, and the cells were rinsed once with assay buffer (20 mM HEPES pH 7.4, 125 mM sodium gluconate, 4.8 mM potassium gluconate, 1.2 mM monobasic potassium phosphate, 1.2 mM magnesium sulfate, 1.3 mM calcium gluconate, and 5.6 mM glucose) and then incubated with 400 µM urate consisted of 80 µM ^14C-radiolabeled (50–60 mCi/mmol, 0.5 mCi/mL, American Radiolabeled Chemicals, Inc.) and 320 µM non-radiolabeled in assay buffer at 37 °C for 20 min. In some experiments, 125 mM sodium gluconate was replaced by sodium chloride, sulfate, or phosphate. […] The cells were then lysed in 0.1 M NaOH, and the lysed samples were added to scintillation liquid to measure radioactivity using a PerkinElmer Microbeta2 counter. […]

Positions count from the first letter of the chain named.

As to `O=C(O)c1cnccn1` [Pyrazinoate, pyrazinoate], the “Potentiation in urate uptake by anion preloading (fold change), Q473E” value in assay [1] worked out at 1.2 fold. The “Potentiation in urate uptake by anion preloading (fold change), WT” value in assay [2] is 3.5 fold. One may read the IC50 as the midpoint of a concentration-inhibition curve. For the compound `CC(C)(Sc1ccncc1-c1ccc(C#N)c2ccccc12)C(=O)O` [verinurad], the IC50 is 63 nM in assay [3] and 53 nM in assay [4].

As usually defined, the stoichiometry N is the number of molecules, sites or subunits per partner or assembly. “human URAT1 tagged with MBP and DARPin, with part of the intracellular loop (residues 280-343) replaced by OAT4 residues 277-339 (from UniProt Q96S37 1-279; Q9NSA0 277-339; Q96S37 344-553)” gave a stoichiometry N in assay [5] of 2.

Take phosphate: the “Impact on URAT1 function (14C-urate uptake)” value in assay [6] is on record as “minimal impact”.
